According to patent publication US20050261332A1, “Sulfonamides and uses thereof” (priority 2004, published 2005):

Experiments:
GHS-R = target: T1, GHS-R (Homo sapiens, UniProt Q92847); assay: GHS-R competition binding assay (Ki of GHS-R antagonizing compounds)
T1 construct: expressed in transfected cells; host or cells: COS-7 cells
How it was run: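 COS-7 cells expressing GHS-R (1×10^5 cells/well) competed against 25 pM ^125I-ghrelin for 3 hours at 4° C in 50 mM HEPES pH 7.4 with 1 mM CaCl2, 5 mM MgCl2, 0.1% BSA, bacitracin. Nonspecific binding with […]; bound radioactivity counted after washing and lysis. Ki=IC50/(1+L/Kd).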

mice = assay: fast refeed (fast-refeeding) assay in mice; format: in vivo
Experimental: In vivo assays. Exemplary in vivo assays include the fast-refeeding assay described in Example 1 and as follows.
Food is removed at 6 pm for an overnight (˜16 hour) fast. Beginning at 10 am on the next morning, mice are administered with either vehicle (e.g., saline+acetic acid, pH=5) or the compound of interest. Mice are then returned to their home cages and pre-weighed food (approximately 90 grams) is immediately returned to the food hoppers in each cage. The weight of the food remaining in the food hoppers is measured at 30 minutes, 1 hour, 2 hours, and 4 hours post compound/vehicle administration. Final body weights are then recorded for the mice.

T1 sequence (Q92847 whole entry, species assumed): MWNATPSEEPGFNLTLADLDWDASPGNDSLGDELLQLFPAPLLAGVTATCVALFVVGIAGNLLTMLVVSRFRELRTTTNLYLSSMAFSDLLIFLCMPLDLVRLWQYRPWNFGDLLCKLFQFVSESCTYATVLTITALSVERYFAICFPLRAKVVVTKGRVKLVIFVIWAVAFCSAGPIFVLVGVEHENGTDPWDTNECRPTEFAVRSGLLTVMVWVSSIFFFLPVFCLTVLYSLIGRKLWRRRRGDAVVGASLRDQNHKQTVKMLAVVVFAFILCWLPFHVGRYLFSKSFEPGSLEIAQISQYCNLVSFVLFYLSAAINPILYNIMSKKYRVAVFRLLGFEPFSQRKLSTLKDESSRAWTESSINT

| Compound | Ki (GHS-R) [nM] | feeding activity of mice in the fast refeed assay (mice) |
| --- | --- | --- |
| CCN(CC)CCCS(=O)(=O)N[C@H](CCc1ccccc1)C(=O)NCc1ccc(-c2ccccc2CO)cc1 [Compound 207, (R)-2-(3-(diethylamino)propylsulfonamido)-N-((2′-(hydroxymethyl)biphenyl-4-yl)methyl)-4-phenylbutanamide] | < 100 | – |
| CCN(CC)CCCS(=O)(=O)N[C@@H](COCc1ccccc1)C(=O)N1CCC2(CC1)CN(S(C)(=O)=O)c1ccccc12 [Compound 210, (S)-N-(3-(benzyloxy)-1-(1-(methylsulfonyl)spiro[indoline-3,4′-piperidine]-1′-yl)-1-oxopropan-2-yl)-3-(diethylamino)propane-1-sulfonamide] | 100 to 1000 | – |
| CCN(CC)CCCS(=O)(=O)N[C@@H](CCc1ccccc1)C(=O)N1CCC2(CC1)CN(S(C)(=O)=O)c1ccccc12 [Compound 211, (S)-3-(diethylamino)-N-(1-(1-(methylsulfonyl)spiro[indoline-3,4′-piperidine]-1′-yl)-1-oxo-4-phenylbutan-2-yl)propane-1-sulfonamide] | < 100 | – |
| CCN(CC)CCCS(=O)(=O)N[C@H](COCc1ccccc1)C(=O)NCc1ccc(-c2ccccc2CN)cc1 [Compound 213, (R)-N-(2′-Aminomethyl-biphenyl-4-ylmethyl)-3-benzyloxy-2-(3-diethylamino-propane-1-sulfonylamino)-propionamide] | 100 to 1000 | – |
| CCN(CC)CCCS(=O)(=O)N[C@H](COCc1ccccc1)C(=O)NCc1ccc(-c2ccccc2CNC(C)=O)cc1 [Compound 216, (R)-N-[2′-(Acetylamino-methyl)-biphenyl-4-ylmethyl]-3-benzyloxy-2-(3-diethylamino-propane-1-sulfonylamino)-propionamide] | > 1000 | – |
| CCN(CC)CCCS(=O)(=O)N[C@H](COCc1ccccc1)C(=O)NCc1ccc(-c2ccccc2CCNC(=O)NC)cc1 [Compound 217, (R)-3-Benzyloxy-2-(3-diethylamino-propane-1-sulfonylamino)-N-{2′-[2-(3-methyl-ureido)-ethyl]-biphenyl-4-ylmethyl}-propionamide] | 100 to 1000 | – |
| CS(=O)(=O)N1CC2(CCN(C(=O)[C@@H](CCCc3ccccc3)NS(=O)(=O)CCCN=[N+]=[N-])CC2)c2ccccc21 [Compound 220, (R)-3-azido-N-(1-(1-(methylsulfonyl)spiro[indoline-3,4′-piperidine]-1′-yl)-1-oxo-5-phenylpentan-2-yl)propane-1-sulfonamide] | 100 to 1000 | – |
| (R)-N-(3-(benzyloxy)-1-(1-(methylsulfonyl)spiro[indoline-3,4′-piperidine]-1′-yl)-1-oxopropan-2-yl)-3-isosulfonylazolidine [Compound 151] | 100 to 1000 | – |
| substance P: substance P; found to modulate GHS-R activity and to alter feeding activity of mice | – | alters feeding activity |

Second part, led by results:

| Ki (GHS-R) [nM] | Compound | feeding activity of mice in the fast refeed assay (mice) |
| --- | --- | --- |
| < 100 | CCN(CC)CCS(=O)(=O)N[C@H](CCc1ccccc1)C(=O)c1ccc(-c2ccccc2CNC(C)=O)cc1 [Compound 204, (R)-N-((4′-(2-(2-(diethylamino)ethylsulfonamido)-4-phenylbutanoyl)biphenyl-2-yl)methyl)acetamide] | – |
| < 100 | CCNC(=O)NCc1ccccc1-c1ccc(C(=O)[C@@H](CCc2ccccc2)NS(=O)(=O)CCN(CC)CC)cc1 [Compound 205, (R)-2-(diethylamino)-N-(1-(2′-((3-ethylureido)methyl)biphenyl-4-yl)-1-oxo-4-phenylbutan-2-yl)ethanesulfonamide] | – |
| < 100 | CCN(CC)CCCS(=O)(=O)N[C@H](CCc1ccccc1)C(=O)NCc1ccc(-c2ccccc2CCNC(=O)NC)cc1 [Compound 206, (R)-2-(3-(diethylamino)propylsulfonamido)-N-((2′-(2-(3-methylureido)ethyl)biphenyl-4-yl)methyl)-4-phenylbutanamide] | – |
| < 100 | CCN(CC)CCCS(=O)(=O)N[C@H](CCc1ccccc1)C(=O)NCc1ccc(-c2ccccc2COC(=O)NC)cc1 [Compound 208, (R)-Methyl-carbamic acid 4′-{[2-(3-diethylamino-propane-1-sulfonylamino)-4-phenyl-butyrylamino]-methyl}-biphenyl-2-ylmethyl ester] | – |
| < 100 | CCN(CC)CCS(=O)(=O)N[C@H](CCc1ccccc1)C(=O)c1ccc(-c2ccccc2CNC(=O)NC)cc1 [Compound 209, (R)-2-(diethylamino)-N-(1-(2′-((3-methylureido)methyl)biphenyl-4-yl)-1-oxo-4-phenylbutan-2-yl)ethanesulfonamide] | – |
| < 100 | CCN(CC)CCS(=O)(=O)N[C@H](CCc1ccccc1)C(=O)c1ccc(-c2ccccc2CCNC(=O)NC)cc1 [Compound 212, (R)-2-(diethylamino)-N-(1-(2′-(2-(3-methylureido)ethyl)biphenyl-4-yl)-1-oxo-4-phenylbutan-2-yl)ethanesulfonamide] | – |
| 100 to 1000 | CCN(CC)CCCS(=O)(=O)N[C@H](COCc1ccccc1)C(=O)NCc1ccc(-c2ccccc2CNC(=O)NC)cc1 [Compound 214, (R)-3-Benzyloxy-2-(3-diethylamino-propane-1-sulfonylamino)-N-{2′[(3-methyl-ureido)-methyl]-biphenyl-4-ylmethyl}-propionamide] | – |
| > 1000 | CCN(CC)CCS(=O)(=O)N[C@H](CCc1ccccc1)C(=O)c1ccc(-c2ccccc2COC(=O)NC)cc1 [Compound 215, (R)-(4′-(2-(2-(diethylamino)ethylsulfonamido)-4-phenylbutanoyl)biphenyl-2-yl)methyl methylcarbamate] | – |
| > 1000 | CCN(CC)CCS(=O)(=O)N[C@H](CCc1ccccc1)C(=O)c1ccc(-c2ccccc2C(N)=O)cc1 [Compound 218, (R)-4′-(2-(2-(diethylamino)ethylsulfonamido)-4-phenylbutanoyl)biphenyl-2-carboxamide] | – |
| 100 to 1000 | CCN(CC)CCCS(=O)(=O)N[C@H](COCc1ccccc1)C(=O)c1ccc(-c2ccccc2COC(=O)NC)cc1 [Compound 219, (R)-Methyl-carbamic acid 4′-[(R)-3-benzyloxy-2-(3-diethylamino-propane-1-sulfonylamino)-propionyl]-biphenyl-2-ylmethyl ester] | – |
